Measurements taken from patent publication US20260226068A1, “IMIDAZOTRIAZINE IL-17A MODULATORS AND USES THEREOF” (DICE ALPHA, INC., priority 2023, published 2026).

Tests used:
IL-17A/A = biological target: T1, IL-17A/A (Homo sapiens, UniProt Q16552); assay: IL-17A/A HEK-Blue cell assay (SEAP reporter); type: cell-based; conditions: HEK-Blue IL-17A reporter cells, IL17A/A 5 ng/mL, 20 hours, SEAP read at A630; read-out: HEK-Blue IL17AA (IC50 for IL-17A/A inhibition)
T1 construct: purchased Genscript Z03228
T1 sequence (Q16552 24-155): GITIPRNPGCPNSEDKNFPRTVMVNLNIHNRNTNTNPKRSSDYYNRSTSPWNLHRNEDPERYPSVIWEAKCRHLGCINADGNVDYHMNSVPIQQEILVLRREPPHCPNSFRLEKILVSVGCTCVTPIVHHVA

IL-17A/F = biological target: T2, IL-17A/F (Homo sapiens, UniProt Q16552+Q96PD4); assay: IL-17A/F HEK-Blue cell assay (SEAP reporter); type: cell-based; conditions: HEK-Blue IL-17A reporter cells, IL17A/F 5 ng/mL, 20 hours, SEAP read at A630; read-out: HEK-Blue IL17AF (IC50 for IL-17A/F inhibition)
T2 construct: purchased R&D Systems
T2 sequence (Q16552 24-155): T1 sequence (Q16552 24-155)
T2 sequence (Q96PD4 31-163): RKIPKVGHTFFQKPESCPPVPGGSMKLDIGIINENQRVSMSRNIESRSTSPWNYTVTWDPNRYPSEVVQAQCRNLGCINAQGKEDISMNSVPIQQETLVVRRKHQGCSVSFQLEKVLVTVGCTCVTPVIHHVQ

Compound | IC50 (IL-17A/A) | IC50 (IL-17A/F)
Cn1nccc1C(=O)N[C@H](c1cn2nc(C[C@H]3C[C@@H](C(F)(F)F)CNC3=O)c([C@H]3CCCOC3)nc2n1)C1CCC(F)(F)CC1 (single isomer, unassigned) [Compound 263] | < 0.1 µM | > 1 µM
Cn1nccc1C(=O)N[C@H](c1cn2nc(C[C@H]3C[C@@H](C(F)(F)F)CNC3=O)c([C@@H]3CCCOC3)nc2n1)C1CCC(F)(F)CC1 (single isomer, unassigned) [Compound 264] | < 0.1 µM | 0.1 to 1 µM
Cc1nonc1C(=O)N[C@H](c1cn2nc(C[C@H]3C[C@@H](C(F)(F)F)CNC3=O)c(C3CCCOC3)nc2n1)C1CCC(F)(F)CC1 (single isomer, unassigned) [Compound 265] | < 0.1 µM | > 1 µM
Cc1nonc1C(=O)N[C@H](c1cn2nc(C[C@H]3C[C@@H](C(F)(F)F)CNC3=O)c([C@@H]3CCCOC3)nc2n1)C1CCC(F)(F)CC1 (single isomer, unassigned) [Compound 266] | < 0.1 µM | > 1 µM
Cn1nccc1C(=O)N[C@H](c1cn2nc(C[C@H]3C[C@@H](C(F)(F)F)CNC3=O)c([C@H]3CCCOC3)nc2n1)[C@H]1CCCC(F)(F)C1 (single isomer, unassigned) [Compound 267] | < 0.1 µM | 0.1 to 1 µM
Cn1nccc1C(=O)N[C@H](c1cn2nc(C[C@H]3C[C@@H](C(F)(F)F)CNC3=O)c([C@@H]3CCCOC3)nc2n1)[C@H]1CCCC(F)(F)C1 (single isomer, unassigned) [Compound 268] | < 0.1 µM | 0.1 to 1 µM
Cc1nonc1C(=O)N[C@H](c1cn2nc(C[C@H]3C[C@@H](C(F)(F)F)CNC3=O)c([C@H]3CCOC3)nc2n1)C1CCC(F)(F)CC1 (single isomer, unassigned) [Compound 274] | < 0.1 µM | > 1 µM
Cc1nonc1C(=O)N[C@H](c1cn2nc(C[C@H]3C[C@@H](C(F)(F)F)CNC3=O)c([C@@H]3CCOC3)nc2n1)C1CCC(F)(F)CC1 (single isomer, unassigned) [Compound 275] | < 0.1 µM | > 1 µM
CCn1nccc1C(=O)N[C@H](c1cn2nc(C[C@H]3C[C@@H](C(F)(F)F)CNC3=O)c(C3CCOCC3)nc2n1)[C@@H]1CC[C@@H]2C[C@@H]2CC1 (single isomer, unassigned) [Compound 293] | < 0.1 µM | < 0.1 µM
CCn1nccc1C(=O)N[C@H](c1cn2nc(C[C@H]3C[C@@H](C(F)(F)F)CNC3=O)c(C3CCOCC3)nc2n1)C1CC[C@@H]2C[C@@H]2CC1 (single isomer, unassigned) [Compound 294] | < 0.1 µM | < 0.1 µM
CCn1nccc1C(=O)N[C@H](c1cn2nc(C[C@H]3C[C@@H](C(F)(F)F)CNC3=O)c([C@H]3CCOC3)nc2n1)C(C1CC1)C1CC1 (single isomer, unassigned) [Compound 321] | < 0.1 µM | 0.1 to 1 µM
CCn1nccc1C(=O)N[C@H](c1cn2nc(C[C@H]3C[C@@H](C(F)(F)F)CNC3=O)c([C@@H]3CCOC3)nc2n1)C(C1CC1)C1CC1 (single isomer, unassigned) [Compound 322] | < 0.1 µM | 0.1 to 1 µM
CCn1nccc1C(=O)N[C@H](c1cn2nc(C[C@H]3C[C@@H](C(F)(F)F)CNC3=O)c([C@H](C)N3CCOCC3)nc2n1)C1CCC(F)(F)CC1 (single isomer, unassigned) [Compound 381] | 0.1 to 1 µM | > 1 µM
CCn1nccc1C(=O)N[C@H](c1cn2nc(C[C@H]3C[C@@H](C(F)(F)F)CNC3=O)c(C3Cc4cncnc4C3)nc2n1)C1CCC(F)(F)CC1 (single isomer, unassigned) [Compound 400] | < 0.1 µM | 0.1 to 1 µM
CCn1nccc1C(=O)N[C@H](c1cn2nc(C[C@H]3C[C@@H](C(F)(F)F)CNC3=O)c(C3Cc4cncnc4C3)nc2n1)C1CCC(F)(F)CC1 (single isomer, unassigned) [Compound 402] | < 0.1 µM | 0.1 to 1 µM
CCn1nccc1C(=O)N[C@H](c1cn2nc(C[C@H]3C[C@@H](C(F)(F)F)CNC3=O)c(N3CCN(C)[C@H](C4CC4)C3)nc2n1)C1CCC(F)(F)CC1 (single isomer, unassigned) [Compound 431] | < 0.1 µM | 0.1 to 1 µM
CCn1nccc1C(=O)N[C@H](c1cn2nc(C[C@H]3C[C@@H](C(F)(F)F)CNC3=O)c(N3CCN(C)C(C4CC4)C3)nc2n1)C1CCC(F)(F)CC1 (single isomer, unassigned) [Compound 432] | < 0.1 µM | 0.1 to 1 µM
CCn1ncnc1C(=O)N[C@H](c1cn2nc(C[C@H]3C[C@@H](C(F)(F)F)CNC3=O)c(C3CCOCC3)nc2n1)C1CCCC(F)(F)C1 (stereo in doubt) [Compound 384, N—((S)—((S)-3,3-difluorocyclohexyl)(2-(((3R,5R)-2-oxo-5-(trifluoromethyl)piperidin-3-yl)methyl)-3-(tetrahydro-2H-pyran-4-yl)imidazo[1,2-b][1,2,4]triazin-6-yl)methyl)-1-ethyl-1H-1,2,4-triazole-5-carboxamide] | < 0.1 µM | > 1 µM

Second part, the compound after the results:

IC50 (IL-17A/A) | IC50 (IL-17A/F) | Compound
< 0.1 µM | 0.1 to 1 µM | CCn1nccc1C(=O)N[C@H](c1cn2nc(C[C@H]3C[C@@H](C(F)(F)F)CNC3=O)c([C@H]3COCCC3(F)F)nc2n1)C1CCC(F)(F)CC1 (single isomer, unassigned) [Compound 257]
< 0.1 µM | 0.1 to 1 µM | CCn1nccc1C(=O)N[C@H](c1cn2nc(C[C@H]3C[C@@H](C(F)(F)F)CNC3=O)c([C@H]3CCC(C)(C)OC3)nc2n1)C1CCC(F)(F)CC1 (single isomer, unassigned) [Compound 258]
< 0.1 µM | < 0.1 µM | CCn1nccc1C(=O)N[C@H](c1cn2nc(C[C@H]3C[C@@H](C(F)(F)F)CNC3=O)c(C3COCCC3(F)F)nc2n1)C1CCC(F)(F)CC1 (single isomer, unassigned) [Compound 259]
< 0.1 µM | 0.1 to 1 µM | CCn1nccc1C(=O)N[C@H](c1cn2nc(C[C@H]3C[C@@H](C(F)(F)F)CNC3=O)c(C3CCCC(F)(F)C3)nc2n1)C1CCC(F)(F)CC1 (single isomer, unassigned) [Compound 271]
< 0.1 µM | < 0.1 µM | CCn1nccc1C(=O)N[C@H](c1cn2nc(C[C@H]3C[C@@H](C(F)(F)F)CNC3=O)c([C@@H]3CCCC(F)(F)C3)nc2n1)C1CCC(F)(F)CC1 (single isomer, unassigned) [Compound 272]
0.1 to 1 µM | > 1 µM | CCn1nccc1C(=O)N[C@H](c1cn2nc(C[C@H]3C[C@@H](C(F)(F)F)CNC3=O)c(C3CCN(C)C3)nc2n1)C1CCC(F)(F)CC1 (single isomer, unassigned) [Compound 285]
0.1 to 1 µM | > 1 µM | CCn1nccc1C(=O)N[C@H](c1cn2nc(C[C@H]3C[C@@H](C(F)(F)F)CNC3=O)c([C@@H]3CCCCN3)nc2n1)C1CCC(F)(F)CC1 (single isomer, unassigned) [Compound 324]
0.1 to 1 µM | > 1 µM | CCn1nccc1C(=O)N[C@H](c1cn2nc(C[C@H]3C[C@@H](C(F)(F)F)CNC3=O)c([C@H]3CCCCN3)nc2n1)C1CCC(F)(F)CC1 (single isomer, unassigned) [Compound 325]
< 0.1 µM | > 1 µM | CCn1nccc1C(=O)N[C@H](c1cn2nc(C[C@H]3C[C@@H](C(F)(F)F)CNC3=O)c([C@@H]3CN(C)CCO3)nc2n1)C1CCC(F)(F)CC1 (single isomer, unassigned) [Compound 376]
< 0.1 µM | > 1 µM | CCn1nccc1C(=O)N[C@H](c1cn2nc(C[C@H]3C[C@@H](C(F)(F)F)CNC3=O)c([C@H]3CN(C)CCO3)nc2n1)C1CCC(F)(F)CC1 (single isomer, unassigned) [Compound 382]
0.1 to 1 µM | > 1 µM | CCn1nccc1C(=O)N[C@H](c1cn2nc(C[C@H]3C[C@@H](C(F)(F)F)CNC3=O)c([C@@H]3CCCN(C)C3)nc2n1)C1CCC(F)(F)CC1 (single isomer, unassigned) [Compound 401]
< 0.1 µM | > 1 µM | CCn1nccc1C(=O)N[C@H](c1cn2nc(C[C@H]3C[C@@H](C(F)(F)F)CNC3=O)c(C3CCCN(C)C3)nc2n1)C1CCC(F)(F)CC1 (single isomer, unassigned) [Compound 403]
0.1 to 1 µM | > 1 µM | CCn1nccc1C(=O)N[C@H](c1cn2nc(C[C@H]3C[C@@H](C(F)(F)F)CNC3=O)c(C3COCCN3C)nc2n1)C1CCC(F)(F)CC1 (single isomer, unassigned) [Compound 404]
0.1 to 1 µM | > 1 µM | CCn1nccc1C(=O)N[C@H](c1cn2nc(C[C@H]3C[C@@H](C(F)(F)F)CNC3=O)c(C3CCN(C)C3)nc2n1)C1CCC(F)(F)CC1 (single isomer, unassigned) [Compound 439]
< 0.1 µM | > 1 µM | CCn1nccc1C(=O)N[C@H](c1cn2nc(CC3C[C@@H](C(F)(F)F)CNC3=O)c(C3CCOCC3)nc2n1)C1CCC(F)(F)CC1 (stereo in doubt) [Compound 89, N-((1S)-(4,4-difluorocyclohexyl)(2-(((3R,5R)-2-oxo-5-(trifluoromethyl)piperidin-3-yl)methyl)-3-(tetrahydro-2H-pyran-4-yl)imidazo[1,2-b][1,2,4]triazin-6-yl)methyl)-1-ethyl-1H-pyrazole-5-carboxamide]
